Assay results published in paper PMC12377313, “New 1E,1′E-hydrazine-bis(phenoxy-1,2,3-triazol-acetamide) derivatives as potent inhibitors against acetylcholinesterase, butyrylcholinesterase, and α-glucosidase” (RSC Advances, 2025).

What was measured:
[1] = system: HEK293 embryonic kidney cells; test: MTT cell viability assay, HEK293; format: cell-based; conditions: Homo sapiens, HEK293; 24 h treatment, MTT, mean ± SD (n = 3); read-out: IC50 (μM) HEK-293
Protocol: The human neuroblastoma cell line SH-SY5Y (ATCC® CRL-2266™) and HEK293 (ATCC® CRL-1573™) human embryonic kidney cells were grown in Dulbecco's Modified Eagle Medium/Nutrient Mixture F-12 (DMEM/F-12) culture containing 10% heat-inactivated fetal bovine serum (FBS) and 1% antibiotics. The cells were incubated at 37 °C in a humidified atmosphere of 5% CO2. Both cell lines were provided by the American Type Culture Collection (ATCC).[30,31]
SH-SY5Y (ATCC® CRL-2266™) and HEK293 (ATCC® CRL-1573™) cells were seeded into 96-well plates at a density of 5 × 10^3 cells per well, and allowed to adhere overnight in a humidified incubator at 37 °C with 5% CO2. After attachment, the cells were treated with eight different concentrations of the target compounds (200, 100, 50, 25, 12.5, 6.25, 3.125, and 1.5625 μM), prepared via serial 1 : 2 dilutions, for 24 hours. Each concentration was tested in triplicate.
(§1) Following treatment, 10 μL of MTT solution (5 mg mL^−1 in PBS) was added to each well and incubated for an additional 4 hours under the same conditions. At the end of the incubation period, the medium containing MTT was carefully removed, and the formazan crystals formed by viable cells were solubilized in 100 μL of DMSO per well. The absorbance was measured at 570 nm using a microplate reader. The net absorbance (after blank subtraction) was used to calculate the percentage cell viability relative to the untreated control cells, which was set at 100%. All results were expressed as mean ± standard deviation (SD) of three independent experiments.[32,33]

[2] = target: T1, AChE (Homo sapiens, UniProt P22303); test: biochemical; format: biochemical; conditions: read-out: IC50 (nM) AChE
[3] = target: T2, BChE (Homo sapiens, UniProt P06276); test: biochemical
[4] = target: T3, α-glucosidase (Saccharomyces cerevisiae, UniProt P53341); test: α-Glucosidase inhibition assay (p-NPG substrate); format: biochemical, yeast
Protocol: For this assay, the yeast form of α-glucosidase was used and p-nitrophenyl-α-D-glycopyranoside (p-NPG) was used as the substrate. The required solutions of these materials were prepared in a phosphate buffer solution (pH of 7.4 and a concentration of 5 mM). […] Subsequently, a mixture containing 200 μL of phosphate solution, 50 μL of the substrate, and 5–200 μL of the sample solution was pre-incubated at 35 °C for 3 min for α-glucosidase.

[5] = system: SH-SY5Y neuroblastoma cells; test: MTT cell viability assay, SH-SY5Y; format: cell-based, human; conditions: for Selectivity (selectivity index): HEK293 versus SH-SY5Y; for IC50: Homo sapiens, SH-SY5Y, 24 h, 24 h treatment, MTT, mean ± SD (n = 3), read-out: IC50 (μM) SH-SY5Y
Protocol: The cells were incubated at 37 °C in a humidified atmosphere of 5% CO2. Both cell lines were provided by the American Type Culture Collection (ATCC).[30,31]
Each concentration was tested in triplicate.
as §1

[6] = target: T3, α-glucosidase; test: Kinetic study (Lineweaver–Burk plots), α-glucosidase; format: biochemical
Protocol: In this regard, compound 10k for AChE and BChE and compound 10h for α-glucosidase were selected. The type of inhibition of these compounds was determined by Lineweaver–Burk plots. […] These indicated a competitive type of inhibition for compound 10k.

[7] = target: T1, AChE; test: Kinetic study (Lineweaver–Burk plots), AChE; format: biochemical
Protocol: (§2) […]. In this regard, compound 10k for AChE and BChE and compound 10h for α-glucosidase were selected. The type of inhibition of these compounds was determined by Lineweaver–Burk plots. […] These indicated a competitive type of inhibition for compound 10k.

[8] = target: T2, BChE; test: Kinetic study (Lineweaver–Burk plots), BChE; format: biochemical
Protocol: as §2

T1 sequence (P22303 32-614): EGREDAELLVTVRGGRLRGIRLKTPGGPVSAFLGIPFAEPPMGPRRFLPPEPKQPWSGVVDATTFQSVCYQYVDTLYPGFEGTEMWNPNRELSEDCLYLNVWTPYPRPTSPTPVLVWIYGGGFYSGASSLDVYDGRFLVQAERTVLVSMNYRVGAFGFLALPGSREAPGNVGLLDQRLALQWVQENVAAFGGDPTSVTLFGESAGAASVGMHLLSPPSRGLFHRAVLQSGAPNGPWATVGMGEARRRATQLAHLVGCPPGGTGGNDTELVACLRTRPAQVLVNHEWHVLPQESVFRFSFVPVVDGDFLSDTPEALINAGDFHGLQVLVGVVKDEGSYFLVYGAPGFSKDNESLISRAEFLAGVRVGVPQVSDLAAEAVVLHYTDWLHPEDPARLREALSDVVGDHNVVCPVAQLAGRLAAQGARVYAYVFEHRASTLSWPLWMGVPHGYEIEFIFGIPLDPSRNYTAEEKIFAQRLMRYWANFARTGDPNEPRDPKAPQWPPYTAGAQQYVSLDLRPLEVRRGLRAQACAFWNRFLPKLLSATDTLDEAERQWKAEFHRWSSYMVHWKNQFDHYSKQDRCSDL
T3 sequence (P53341 whole entry): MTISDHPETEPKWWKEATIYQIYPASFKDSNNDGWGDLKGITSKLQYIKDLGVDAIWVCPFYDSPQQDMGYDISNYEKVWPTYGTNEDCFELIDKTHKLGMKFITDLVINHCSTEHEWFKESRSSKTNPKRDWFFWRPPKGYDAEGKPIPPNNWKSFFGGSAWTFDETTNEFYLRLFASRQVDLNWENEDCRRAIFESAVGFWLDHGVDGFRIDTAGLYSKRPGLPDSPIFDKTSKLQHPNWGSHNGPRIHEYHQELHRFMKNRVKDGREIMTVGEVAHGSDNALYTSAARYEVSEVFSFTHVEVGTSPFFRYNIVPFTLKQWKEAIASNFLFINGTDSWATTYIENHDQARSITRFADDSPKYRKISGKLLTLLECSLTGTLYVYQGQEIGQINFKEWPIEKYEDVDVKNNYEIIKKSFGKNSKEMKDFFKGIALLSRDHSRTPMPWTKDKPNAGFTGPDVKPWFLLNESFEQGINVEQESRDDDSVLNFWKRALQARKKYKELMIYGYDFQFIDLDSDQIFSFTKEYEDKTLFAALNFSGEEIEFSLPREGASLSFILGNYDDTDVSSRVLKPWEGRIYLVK
T2 sequence (P06276 29-602): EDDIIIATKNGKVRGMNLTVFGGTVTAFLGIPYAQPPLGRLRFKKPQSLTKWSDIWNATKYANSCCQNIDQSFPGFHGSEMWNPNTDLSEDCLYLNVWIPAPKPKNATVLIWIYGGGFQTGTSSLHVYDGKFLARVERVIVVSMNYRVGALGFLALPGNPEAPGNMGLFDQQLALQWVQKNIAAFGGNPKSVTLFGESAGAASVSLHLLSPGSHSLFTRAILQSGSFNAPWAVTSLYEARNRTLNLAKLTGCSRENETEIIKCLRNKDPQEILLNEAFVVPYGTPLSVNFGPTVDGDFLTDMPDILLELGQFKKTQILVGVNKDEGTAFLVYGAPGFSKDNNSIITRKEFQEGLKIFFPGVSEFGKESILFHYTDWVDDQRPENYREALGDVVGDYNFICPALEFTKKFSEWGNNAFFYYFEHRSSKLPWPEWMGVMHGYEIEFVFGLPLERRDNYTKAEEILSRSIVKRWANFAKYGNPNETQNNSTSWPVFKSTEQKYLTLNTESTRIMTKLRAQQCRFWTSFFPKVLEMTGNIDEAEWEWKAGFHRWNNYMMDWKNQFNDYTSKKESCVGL

Row | Compound | IC50 [1] | IC50 [2] | IC50 [3] | IC50 [4] | Selectivity (selectivity index) [5] | IC50 [5] | type of inhibition against α-glucosidase [6] | type of inhibition against AChE [7] | type of inhibition against BChE [8]
1 | O=C(Cn1cc(COc2ccc(/C=N/N=C/c3ccc(OCc4cn(CC(=O)Nc5ccccc5Cl)nn4)cc3)cc2)nn1)Nc1ccccc1Cl [Compound 10h, 2,2′-((((((1E,1′E)-Hydrazine-1,2-diylidenebis(methaneylylidene))bis(4,1-phenylene))bis(oxy))bis(methylene))bis(1H-1,2,3-triazole-4,1-diyl))bis(N-(2-chlorophenyl)acetamide)] | 78.38 ± 0.57 µM | 118 ± 9.17 nM | 19.4 ± 0.65 nM | 23.9 ± 3.42 nM | 10.6 | 7.42 ± 0.07 µM | non-competitive | – | –
2 | O=C(Cn1cc(COc2ccc(/C=N/N=C/c3ccc(OCc4cn(CC(=O)Nc5ccc(Cl)cc5Cl)nn4)cc3)cc2)nn1)Nc1ccc(Cl)cc1Cl [Compound 10k, 2,2′-((((((1E,1′E)-Hydrazine-1,2-diylidenebis(methaneylylidene))bis(4,1-phenylene))bis(oxy))bis(methylene))bis(1H-1,2,3-triazole-4,1-diyl))bis(N-(2,4-dichlorophenyl)acetamide)] | 81.71 ± 0.56 µM | 105 ± 7.32 nM | 10.1 ± 1.08 nM | 46.1 ± 3.26 nM | 10.1 | 8.11 ± 0.07 µM | – | competitive | competitive
